According to patent US6790650B2, “Cacao endoproteinases and production of cocoa flavor from same” (Nestec S.A., priority 2000, dated 2004):
Square brackets hold non-standard residues; d marks the D form. Peptide text beside a SMILES is read from it. * marks the point of attachment. Sta = CC(C)C[C@H](N)[C@@H](O)CC(=O)O; Isovaleryl = CC(C)CC(=O)*

B1: TcAP2: aspartic endoproteinase from Theobroma cacao bean (clone CCN51), 514 amino acids; recombinant form secreted by Yarrowia lipolytica clone pCY330-33 (protein)
chain: MGTTIKVVVLSLFISSLLFSVVSSVSNDGLVRIGLKKMKLDPNNRLAARLDSKDGEALRAFIKKYRFRNNLGDSEETDIVALKNYMDAQYYGEIGIGTPTQKFTVIFDTGSSNLWVSSTKCYFSVACYFHEKYKASDSSTYKKDGKPASIQYGTGAISGFFSYDHVQVGDLVVKDQEFIEATKEPGLTFMVAKFDGILGLGFKEISVGDAVPVWYNMIKQGLIKEPVFSFWLNRNVDEEAGGEIVFGGVDPNHYKGKHTYVPVTQKGYWQFDMGDVLIADKPTGYCAGSCAAIADSGTSLLAGPSTVITMINHAIGATGVVSQECKAVVQQYGRTIIDLLIAEAQPQKICSQIGLCTFNGAHGVSTGIESVVDESNGKSSGVLRDAMCPACEMAVVWMQNQVRQNQTQDRILSYVNELCDRVPNPMGESAVDCGSLSSMPTISFTIGGKVFDLTPEEYILKVGEGSEAQCISGFTALDIPPPRGPLWILGDIFMGRYHTVFDFGKLRVGFAEAA

Assays:
[1] = tested on: carboxypeptidase activity; conditions: cited from earlier work
recombinant TcAP2 = assay: Effect of inhibitors on hydrolysis of bovine haemoglobin by recombinant TcAP2; type: biochemical, Theobroma cacao; conditions: 2 μM pepstatin; for Effect on endoprotease activity of recombinant TcAP2: pH 3, 2 mM 1.10 phenanthroline, 100 μM DCI, 10 μM E64
Experimental: Inhibitors were added in the reaction at final concentration of 2 mM for 1.10 phenanthroline, 100 μM DCI, 10 μM E64 and 2 μM pepstatin. Activity at pH 3 without inhibitor was taken as 100% and correspond to 28.8±3.8 pmoles L-leucine produced/min/mg protein. Data are means of 3 measurements±SD;
(§1) Aspartic endoproteinase activity was assayed at 42° C. in a 900 μl reaction medium containing 0.2M sodium citrate buffer pH3.0, 10 mg/ml bovine haemoglobin and 150 μl yeast culture supernatant. To stop the reaction aliquots (80 μl) were added to an equal volume of TCA 8% and the precipitated protein removed by centrifugation at 13000 g. 20 μl supernatant were mixed to 250 μl O-phthaldialdehyde (OPA) reagent (50 mM sodium tetraborate, 1% SDS, 5.96 mM OPA (dissolved in 1 ml methanol) and 1.43 mM β-mercaptoethanol. Activity was then determined measuring OD at 340 nm and expressed in pmole leucine produced per mg protein. For this, we use the following linear equation (OD340 nm=0.0156 pmoles+0.0088), which was determined using a standard curve with L-leucine (0 to 80 pmoles). Protein concentration was determined by Bradford assay (Biorad).
The pepstatin insensitive activity (1.91±1.26 pmoles L-leucine/min/mg protein, 6.65%) is in the same range as that one measured for the control strain (2.26±1.26 pmoles L-leucine/min/mg protein, 7.8%). Other inhibitors such as 1.10 phenanthroline (metallo proteases), DCI (serine proteases) and E64 (cysteine proteases) have no effect on TcAP2 activity (FIG. 12).

[2] = tested on: native aspartic endoproteinase (TcAP2), size exclusion purified pool #57-64; assay: Inhibitor sensitivity of the native purified aspartic endoproteinase (bovine hemoglobin hydrolysis, OPA read-out); type: biochemical, Theobroma cacao; conditions: for Remaining Activity %: pH 3, 10 mg/ml bovine hemoglobin, pepstatin A 0.002 mM, 1,10 phenanthroline 2.0 mM, E-64 0.01 mM, DCI 0.1 mM, two replicates
Experimental: as §1
The inhibitor sensitivity of the native aspartic endoproteinase was determined in 300 μl reactions containing 200 mM sodium citrate, pH 3, 10 mg/ml bovine hemoglobin, and 5 μl of size exclusion purified pool #57-64 (2.4 μg protein/μl). The inhibitors were added to give a final concentration of 2 μM pepstatin, 2 mM 1,10 phenanthroline, 100 μM dichloroisocoumarin (DCI), 10 μM E-64. The enzyme activity was determined as described in example 5.

[3] = tested on: aspartic endoproteinase activity; conditions: activity optimal at pH 3.5; cited from earlier work
bovine haemoglobin = assay: Aspartic endoproteinase activity of recombinant TcAP2 in yeast culture supernatant; type: biochemical
Experimental: Small patches of cells were streaked on YPD agar plates and grown overnight at 28° C. The thin layers of grown cells were used to inoculate 50 ml DMI medium in 500 ml Erlenmeyers with 4 lateral baffles. DMI medium contains per liter: KH2PO4, 10 g; MgSO4,7H2O, 2.5 g; glucose, 20 g; Trace elements solution, 5.1 ml; Vitamins solution, 17 ml; urea, 3 g. Urea was dissolved in 15 ml water and sterile filtered. The initial pH of the medium was adjusted to 5.0. The cultures were shaken at 140 rpm on a rotary shaker at 28° C. for three days. Aliquots of the cultures were centrifuged at maximum speed (3000 g) for 15 min. and the supernatant used for the determination of the aspartic endoproteinase activity.
as §1

Molecule | Effect on endoprotease activity of recombinant TcAP2 (recombinant TcAP2) | Remaining Activity % [2] | other results
O=S(=O)(F)Cc1ccccc1 [PMSF] |  |  | Inhibition of carboxypeptidase activity [1]: inhibited
CC(C)C[C@H](NC(=O)[C@H]1O[C@@H]1C(=O)O)C(=O)NCCCCN=C(N)N [E-64] | no effect | 88% | 
c1cnc2c(c1)ccc1cccnc12 [1,10 Phenanthroline, 1,10 phenanthroline] | no effect | 86% | 
O=c1oc(Cl)c(Cl)c2ccccc12 [DCI, dichloroisocoumarin] | no effect | 90% | 
CC(C)CC(=O)N[C@H](C(=O)N[C@H](C(=O)N[C@@H](CC(C)C)[C@@H](O)CC(=O)N[C@@H](C)C(=O)N[C@@H](CC(C)C)[C@@H](O)CC(=O)O)C(C)C)C(C)C [Pepstatin A] (Isovaleryl-VV[Sta]A[Sta]-OH) | completely inhibited | 0% | Pepstatin insensitive activity (recombinant TcAP2; medium of pCY330-33, pH 3): 1.91±1.26 pmoles L-leucine/min/mg protein; Pepstatin insensitive activity, % of activity without inhibitor (recombinant TcAP2; activity at pH 3 without inhibitor taken as 100%): 6.65%; Inhibition of the purified native protease activity ([2]; 2 μM pepstatin, pH 3): inhibits completely; Inhibition of aspartic endoproteinase activity [3]: inhibited
B1 |  |  | Activity at pH 3 without inhibitor (taken as 100%) (bovine haemoglobin; FIG. 12, means of 3 measurements±SD): 28.8±3.8 pmoles L-leucine produced/min/mg protein; Hydrolysis of bovine haemoglobin by supernatant from pCY330-33 (bovine haemoglobin; pH 3.0, 42° C., means of 3 measurements±SD (FIG. 10)): 25.8±1.45 pmoles L-leucine/min/mg protein; Activity at pH higher than 5 (bovine haemoglobin; pH higher than 5): slight activity
